# Literature values in publication PMC10033663, “Acute pharmacological profile of 2C-B-Fly-NBOMe in male Wistar rats—pharmacokinetics, effects on behaviour and thermoregulation” (Frontiers in Pharmacology, 2023).
# Like-named read-outs stand apart in the source and are kept apart here.
# Tests used:
# [1] = parameters: method as in ref Adams and Geyer, 1982; Páleníček et al., 2013; Páleníček et al., 2008; settings: ref Adams and Geyer, 1982, Páleníček et al., 2013, 2008; cited from earlier work
# [2] = 50 mg/kg s. c., ref Rohanová et al., 2008, cited from earlier work
# [3] = rat blood serum; 1 mg/kg, peroral administration; ref Baralla et al. (2019); cited from earlier work
# [4] = parameters: method as in Gatch et al., 2017; Wojtas et al., 2021; settings: administered i. p.; ref Gatch et al., 2017; Wojtas et al., 2021; cited from earlier work
# rats [5] = test system: rats; parameters: method as in Nakamura et al., 2018; settings: 0.25 intraperitoneally (i. p.), ambient temperature 29°C, ref Nakamura et al., 2018; cited from earlier work
# rats [6] = test system: rats; parameters: method as in Halberstadt and Geyer, 2017; settings: ref Halberstadt and Geyer, 2017; cited from earlier work
# [7] = parameters: method as in ref Šíchová et al., 2022; settings: 5 mg/kg, ref Šíchová et al., 2022, cited from earlier work
# [8] = parameters: method as in ref Šíchová et al., 2022; settings: 5 mg/kg; individually-housed animals; ref Šíchová et al., 2022; cited from earlier work
# [9] = parameters: method as in ref Šíchová et al., 2022; settings: ref Šíchová et al., 2022; cited from earlier work
# [10] = parameters: method as in ref Šíchová et al., 2022; settings: compared with 2C-B-Fly-NBOMe; ref Šíchová et al., 2022; cited from earlier work
# rats [11] = settings: 0.5 mg/kg i. p.; female and male rats; ref Miliano et al. (2019); cited from earlier work
# mice = test system: mice; parameters: method as in Halberstadt, 2017; settings: ref Halberstadt, 2017, cited from earlier work; for locomotion: mice
# rats [12] = test system: rats; parameters: method as in Miliano et al. (2019); settings: ref Miliano et al. (2019), cited from earlier work
structure (smiles),measurement,setting,value
"COc1cc(CCN)c(OC)cc1Br [2C-B, 4-Bromo-2,5-dimethoxyphenethylamine]","biphasic effect (low and high doses, temporal onsets)",[1],biphasic effect
same,time for which presence was detectable,[2]; all collected tissues,up to 5 h
same,time of peak concentration,[2]; blood serum,≤ 30 min
same,time of peak concentration,"[2]; brain, liver, and lung tissue",≤ 60 min
"NCCc1c2c(cc3c1OCC3)OCC2 [2C-FLY, 2-(2,3,6,7-tetrahydrofuro [2,3-f][1]benzofuran-4-yl)ethanamine]",time of peak concentration,[3],60 min
COc1cc(CCNCc2ccccc2OC)c(OC)cc1Br [25B-NBOMe],locomotor activity,[4],dose-dependent decrease in locomotor activity
same,body temperature,rats [5],"hyperthermia, but only in higher ambient temperature"
COc1cc(CCNCc2ccccc2OC)c(OC)cc1Cl [25C-NBOMe],locomotor activity,[4],dose-dependent decrease in locomotor activity
COc1cc(CCNCc2ccccc2O)c(OC)cc1C#N [25CN-NBOH],PPI,rats [6],tendencies to disrupt PPI
COc1cc(CCNCc2ccccc2OC)c(OC)cc1C#N [25CN-NBOMe],half-life,[7]; blood serum,1.88 h
same,half-life,[7]; brain tissue,2.28 h
same,body temperature,[8],significant hypothermic effect
same,PPI,[9],affected PPI only in the highest dose of 5 mg/kg in the 15 min onset
same,locomotion,[10],"similar, yet less pronounced decrease in locomotion"
"COc1cc(CCNCc2ccccc2OC)c(OC)cc1I [25I-NBOMe, 2-(4-iodo-2,5-dimethoxyphenyl)-N-[(2-methoxyphenyl)methyl]ethanamine]",body temperature,rats [11],"induced hyperthermia within 35–65 min in female rats, but not in males"
same,locomotion,"mice; 0.1 mg/kg s. c., 60 min temporal onset",significant hyperlocomotion
same,locomotion,mice; 3 mg/kg s. c.,hypolocomotion
same,biphasic effect on locomotion by route,mice; s. c. versus i. p.,"induced a biphasic effect after s. c. application, but interestingly not after i. p. injection"
same,locomotor activity,[4],dose-dependent decrease in locomotor activity
same,ASR,rats [12]; highest dose (1 mg/kg i. p.),significant decrease of ASR
same,PPI,rats [12],dose-dependent inhibition of PPI
"CC(N)Cc1c2c(cc3c1OCC3)OCC2 (stereo not drawn) [FLY, 1-(2,3,6,7-tetra-hydrofuro [2,3-f][1]benzofuran-4-yl)propan-2-amine]",time of peak concentration,[3],30 min
"CCN(CC)C(=O)[C@@H]1C=C2c3cccc4[nH]cc(c34)C[C@H]2N(C)C1 [LSD, lysergic acid diethylamide]","biphasic effect (low and high doses, temporal onsets)",[1],biphasic effect
COc1cc(CCN)cc(OC)c1OC [mescaline],"biphasic effect (low and high doses, temporal onsets)",[1],biphasic effect
